The values below come from ChEMBL document CHEMBL1135157, “Focused library approach for identification of new N-acylphenylalanines as VCAM/VLA-4 antagonists” (Bioorg Med Chem Lett, 2002).

A short description of test [1]: Inhibition of Very late antigen 4/vascular cell adhesion molecule 1 activity in ELISA assay, at 10 nM concentration. In general terms: An ELISA detects its analyte on a solid surface through an enzyme-linked reagent.
Test [2] in a line: Inhibition of Very late antigen 4/vascular cell adhesion molecule 1 inhibition activity in an ELISA assay.
Test [3] deals with Integrin alpha-4/beta-1 (Homo sapiens, UniProt P05556+P13612). Put plainly: Inhibition of Very late antigen 4 of Ramos cell adhesion to vascular cell adhesion molecule 1. It counts as cell-based.
Integrin alpha-4/beta-1, sequence (P05556 whole entry): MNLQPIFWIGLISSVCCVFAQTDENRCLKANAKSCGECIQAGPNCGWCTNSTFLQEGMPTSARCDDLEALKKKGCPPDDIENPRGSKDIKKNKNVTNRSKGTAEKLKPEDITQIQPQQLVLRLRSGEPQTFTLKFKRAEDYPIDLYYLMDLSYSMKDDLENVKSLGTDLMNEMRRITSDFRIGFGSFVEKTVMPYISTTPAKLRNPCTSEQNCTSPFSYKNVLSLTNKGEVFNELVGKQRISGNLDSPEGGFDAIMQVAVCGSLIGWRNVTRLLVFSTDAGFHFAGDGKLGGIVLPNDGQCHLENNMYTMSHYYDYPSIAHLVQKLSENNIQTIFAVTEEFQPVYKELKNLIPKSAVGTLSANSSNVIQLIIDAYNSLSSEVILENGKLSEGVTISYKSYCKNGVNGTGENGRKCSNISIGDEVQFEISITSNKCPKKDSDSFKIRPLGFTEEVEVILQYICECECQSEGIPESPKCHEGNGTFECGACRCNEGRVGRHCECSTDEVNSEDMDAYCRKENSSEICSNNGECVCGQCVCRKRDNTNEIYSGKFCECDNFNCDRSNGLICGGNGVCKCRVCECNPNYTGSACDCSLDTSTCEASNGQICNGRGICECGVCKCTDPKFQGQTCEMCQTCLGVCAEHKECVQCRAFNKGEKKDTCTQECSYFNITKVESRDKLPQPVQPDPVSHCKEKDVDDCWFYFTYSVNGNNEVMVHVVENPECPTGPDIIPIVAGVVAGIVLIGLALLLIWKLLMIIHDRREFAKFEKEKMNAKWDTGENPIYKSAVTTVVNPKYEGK
Integrin alpha-4/beta-1, sequence (P13612 whole entry): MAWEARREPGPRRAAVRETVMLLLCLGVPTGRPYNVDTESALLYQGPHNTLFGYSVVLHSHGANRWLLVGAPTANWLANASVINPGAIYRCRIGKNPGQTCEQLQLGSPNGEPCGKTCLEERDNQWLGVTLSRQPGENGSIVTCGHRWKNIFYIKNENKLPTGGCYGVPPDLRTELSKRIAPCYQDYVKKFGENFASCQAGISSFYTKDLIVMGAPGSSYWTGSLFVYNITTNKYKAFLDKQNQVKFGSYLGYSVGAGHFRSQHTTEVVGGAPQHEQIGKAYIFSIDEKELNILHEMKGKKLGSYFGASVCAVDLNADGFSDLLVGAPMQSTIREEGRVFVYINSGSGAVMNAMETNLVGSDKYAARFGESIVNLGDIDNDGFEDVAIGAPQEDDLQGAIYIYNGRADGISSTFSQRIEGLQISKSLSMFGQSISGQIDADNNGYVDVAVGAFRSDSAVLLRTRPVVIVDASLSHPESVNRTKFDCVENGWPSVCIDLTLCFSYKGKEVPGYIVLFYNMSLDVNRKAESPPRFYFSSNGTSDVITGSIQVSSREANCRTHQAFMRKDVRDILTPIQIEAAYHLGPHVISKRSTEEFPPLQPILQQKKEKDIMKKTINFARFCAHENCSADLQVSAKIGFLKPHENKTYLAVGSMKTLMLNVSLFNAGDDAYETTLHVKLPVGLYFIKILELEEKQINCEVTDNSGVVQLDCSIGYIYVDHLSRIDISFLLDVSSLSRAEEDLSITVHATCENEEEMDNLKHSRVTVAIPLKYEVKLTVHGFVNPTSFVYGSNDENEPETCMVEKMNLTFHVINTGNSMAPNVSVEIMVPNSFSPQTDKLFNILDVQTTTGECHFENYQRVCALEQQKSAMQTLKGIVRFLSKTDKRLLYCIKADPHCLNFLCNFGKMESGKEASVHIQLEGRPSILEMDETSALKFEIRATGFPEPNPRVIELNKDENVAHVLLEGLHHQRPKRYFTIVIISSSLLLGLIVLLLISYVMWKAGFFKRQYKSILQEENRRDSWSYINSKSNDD

`COc1ccc(C2(C(=O)N[C@@H](Cc3ccc(NC(=O)c4ccnc5ccccc45)cc3)C(=O)O)CCCCC2)cc1` displayed an inhibition in test [1] of 77%. Besides, inhibition in test [2] was half-maximal at 1.2 nM (IC50).
As for `CCCCC(C)(CC)C(=O)N[C@@H](Cc1ccc(NC(=O)c2ccnc3ccccc23)cc1)C(=O)O` (some centres undefined), in test [1], the inhibition stood at 49%. The compound also showed an IC50 in test [2] of 8.2 nM.
For `O=C(Nc1ccc(C[C@H](NC(=O)[C@@H]2CCCN2C(=O)c2ccccc2)C(=O)O)cc1)c1ccnc2ccccc12`, the inhibition in test [1] is 18%.
In test [1], `O=C(N[C@@H](Cc1ccc(NC(=O)c2ccnc3ccccc23)cc1)C(=O)O)c1ccccc1Br` showed an inhibition of 81%. Moreover, in test [2], half-maximal inhibition (IC50) was put at 2.2 nM.
Take `O=C(Nc1ccc(C[C@H](NC(=O)C2CCCC2)C(=O)O)cc1)c1ccnc2ccccc12`: the inhibition in test [1] was 25%.
Turning to `O=C(Nc1ccc(C[C@H](NC(=O)C2(c3ccccc3)CCCC2)C(=O)O)cc1)c1ccnc2ccccc12` (stereo in doubt; 56), the IC50 in test [3] was 590 nM; in test [2], 2.7 nM.
`O=C(N[C@@H](Cc1ccc(NC(=O)c2ccnc3ccccc23)cc1)C(=O)O)c1ccccc1[N+](=O)[O-]`: the inhibition in test [1] worked out at 73%. The compound also had an IC50 in test [2] of 4.7 nM.
The compound `O=C(Nc1ccc(C[C@H](NC(=O)[C@@H]2CSCN2C(=O)c2ccccc2)C(=O)O)cc1)c1ccnc2ccccc12` showed an inhibition in test [1] of 24%.
Take `O=C(Nc1ccc(C[C@H](NC(=O)C2(c3ccccc3)CCCC2)C(=O)O)cc1)c1ccnc2ccccc12` (stereo in doubt; 46) [listing 1 of 2 here]: in test [2], the IC50 turned out to be 3.4 nM.
Regarding `O=C(N[C@@H](Cc1ccc(NC(=O)c2ccnc3ccccc23)cc1)C(=O)O)c1ccccc1Cl`, in test [1], the inhibition stood at 68%. Further, the IC50 in test [2] was 2.9 nM.
Consider `O=C(Nc1ccc(C[C@H](NC(=O)C2(c3ccccc3)CCCC2)C(=O)O)cc1)c1cccnc1Oc1ccccc1`, for which the values for the IC50 in test [3] and in test [2] were 2400 nM and 6.1 nM, respectively.
`O=C(CCc1ccccc1)N[C@@H](Cc1ccc(NC(=O)c2ccnc3ccccc23)cc1)C(=O)O` showed an inhibition in test [1] of 12%.
Regarding `COc1ccc(C2(C(=O)N[C@@H](Cc3ccc(NC(=O)c4ccnc5ccccc45)cc3)C(=O)O)CCCC2)cc1`, the inhibition in test [1] came to 73%. Further, the IC50 in test [2] was 1.4 nM.
The matching figures for `C[C@H]1CC[C@@](C)(C(=O)N[C@@H](Cc2ccc(NC(=O)c3ccnc4ccccc34)cc2)C(=O)O)C1(C)C`: 51% and 2.3 nM.
Regarding `CC1(C)C(C(=O)N[C@@H](Cc2ccc(NC(=O)c3ccnc4ccccc34)cc2)C(=O)O)C1(C)C`, the inhibition in test [1] amounted to 33%.
`O=C(Nc1ccc(C[C@H](NC(=O)C2(c3ccccc3)CCCC2)C(=O)O)cc1)c1c(Cl)cccc1Cl`: the IC50 in test [3] is 98 nM; in test [2], 1.7 nM.
As for `CC1(C(=O)N[C@@H](Cc2ccc(NC(=O)c3ccnc4ccccc34)cc2)C(=O)O)CCCCC1`, the inhibition in test [1] came out at 49%. 7 nM corresponded to half-maximal inhibition in test [2] (IC50).
`O=C(Nc1ccc(C[C@H](NC(=O)C2(c3ccccc3)CCCC2)C(=O)O)cc1)c1ccccc1C(F)(F)F` yielded an IC50 in test [2] of 10 nM.
In turn, `Cc1cc(C)c(C(=O)N[C@@H](Cc2ccc(NC(=O)c3ccnc4ccccc34)cc2)C(=O)O)c(C)c1` had an inhibition in test [1] of 45%.
`N#CC1(C(=O)N[C@@H](Cc2ccc(NC(=O)c3ccnc4ccccc34)cc2)C(=O)O)CCCC1` showed an inhibition in test [1] of 64%. For the same compound, the IC50 in test [2] was found to be 7.6 nM.
The like results for `CC(=O)N1CCC[C@H]1C(=O)N[C@@H](Cc1ccc(NC(=O)c2ccnc3ccccc23)cc1)C(=O)O` were, in that order, 61% and 2 nM.
As to `O=C(Nc1ccc(C[C@H](NC(=O)[C@H]2CCC(=O)N2Cc2ccccc2)C(=O)O)cc1)c1c(Cl)cccc1Cl`, the IC50 in test [3] stood at 12 nM; in test [2] it was 0.37 nM.
In test [1], `CC(=O)N1CSC[C@H]1C(=O)N[C@@H](Cc1ccc(NC(=O)c2ccnc3ccccc23)cc1)C(=O)O` displayed an inhibition of 37%.
`O=C(Nc1ccc(C[C@H](NC(=O)[C@@H]2CSCN2C(=O)CCc2ccccc2)C(=O)O)cc1)c1ccnc2ccccc12`: the inhibition in test [1] was found to be 53%. The compound also came in with an IC50 in test [2] of 1.9 nM.
Take `O=C(N[C@@H](Cc1ccc(NC(=O)c2ccnc3ccccc23)cc1)C(=O)O)c1ccccc1F`: the inhibition in test [1] is 42%.
`O=C(Nc1ccc(C[C@H](NC(=O)[C@@H]2CCCN2C(=O)CCc2ccccc2)C(=O)O)cc1)c1ccnc2ccccc12` returned an inhibition in test [1] of 65%. The compound further registered an IC50 in test [2] of 2.1 nM.
In test [1], `CC(C)(C)C(=O)N[C@@H](Cc1ccc(NC(=O)c2ccnc3ccccc23)cc1)C(=O)O` had an inhibition of 23%.
Still for that read-out and setting: under `O=C(Nc1ccc(C[C@H](NC(=O)C2CCC2)C(=O)O)cc1)c1ccnc2ccccc12` stands 17%.
Compound `O=C(Nc1ccc(C[C@H](NC(=O)C2(c3ccccc3)CCCC2)C(=O)O)cc1)c1ccccc1` displayed an IC50 in test [2] of 23 nM.
In test [1], `O=C(Nc1ccc(C[C@H](NC(=O)C2(c3ccccc3)CC2)C(=O)O)cc1)c1ccnc2ccccc12` returned an inhibition of 19%.
Take `O=C(N[C@@H](Cc1ccc(NC(=O)c2ccnc3ccccc23)cc1)C(=O)O)c1cccnc1Cl`: in test [1], the inhibition came to 61%. This compound also displayed an IC50 in test [2] of 6.6 nM.
In turn, `O=C(Nc1ccc(C[C@H](NC(=O)C2CC2)C(=O)O)cc1)c1ccnc2ccccc12` showed an inhibition in test [1] of 12%.
In test [1], `Cc1ccc(C2(C(=O)N[C@@H](Cc3ccc(NC(=O)c4ccnc5ccccc45)cc3)C(=O)O)CCCC2)cc1` yielded an inhibition of 63%. This compound also returned an IC50 in test [2] of 9.1 nM.
Regarding `O=C(Nc1ccc(C[C@H](NC(=O)C2(c3ccccc3)CCCC2)C(=O)O)cc1)c1nccc2ccccc12`, the figures for the IC50 in test [3] and in test [2] were 1300 nM and 9.8 nM, respectively.
Regarding `O=C(N[C@@H](Cc1ccc(NC(=O)c2ccnc3ccccc23)cc1)C(=O)O)C(=O)c1ccccc1`, the inhibition in test [1] came out at 13%.
`CC1(C(=O)N[C@@H](Cc2ccc(NC(=O)c3ccnc4ccccc34)cc2)C(=O)O)CC1(Cl)Cl` (some centres undefined): in test [1], the inhibition worked out at 69%. This compound came in with an IC50 in test [2] of 3 nM.
As to `Cc1cccc(C(=O)N[C@@H](Cc2ccc(NC(=O)c3ccnc4ccccc34)cc2)C(=O)O)c1C`, the inhibition in test [1] came out at 31%.
On the same count and under the same terms, next, `O=C(Nc1ccc(C[C@H](NC(=O)C2CCCCC2)C(=O)O)cc1)c1ccnc2ccccc12`: 37%.
As to `Cc1cccc(C)c1C(=O)N[C@@H](Cc1ccc(NC(=O)c2ccnc3ccccc23)cc1)C(=O)O`, the inhibition in test [1] stood at 74%. Also, the IC50 in test [2] is 2.5 nM.
`O=C(Nc1ccc(C[C@H](NC(=O)C23CC4CC(CC(C4)C2)C3)C(=O)O)cc1)c1ccnc2ccccc12`: in test [1], the inhibition stood at 72%. In test [2], this compound showed an IC50 of 2.4 nM.
Turning to `O=C(Nc1ccc(C[C@H](NC(=O)C2(c3ccccc3)CCCCC2)C(=O)O)cc1)c1ccnc2ccccc12`, the inhibition in test [1] came to 67%. In addition, the IC50 in test [2] is 5.6 nM.
`Cc1noc(C)c1C(=O)N[C@@H](Cc1ccc(NC(=O)c2ccnc3ccccc23)cc1)C(=O)O` showed an inhibition in test [1] of 46%.
The compound `CCC(C)(C)C(=O)N[C@@H](Cc1ccc(NC(=O)c2ccnc3ccccc23)cc1)C(=O)O` had an inhibition in test [1] of 30%.
On to `O=C(Nc1ccc(C[C@H](NC(=O)C2(c3ccccc3)CCCC2)C(=O)O)cc1)c1ccnc2ccccc12` (stereo in doubt; 46) [listing 2 of 2 here], for which the inhibition in test [1] was 68%.
In the case of `O=C(N[C@@H](Cc1ccc(NC(=O)c2ccnc3ccccc23)cc1)C(=O)O)c1c(F)cccc1F`, in test [1], the inhibition was 64%. In test [2], this compound returned an IC50 of 1.7 nM.
As for `O=C(Nc1ccc(C[C@H](NC(=O)C2CCc3ccccc3C2)C(=O)O)cc1)c1ccnc2ccccc12` (some centres undefined), in test [1], the inhibition stood at 15%.
For the compound `O=C(Nc1ccc(C[C@H](NC(=O)C2(c3ccc(Cl)cc3)CCCC2)C(=O)O)cc1)c1ccnc2ccccc12`, the inhibition in test [1] turned out to be 53%. In test [2], this compound registered an IC50 of 6.4 nM.
The matching figures for `CC(C)C(C(=O)N[C@@H](Cc1ccc(NC(=O)c2ccnc3ccccc23)cc1)C(=O)O)c1ccccc1` (some centres undefined): 73% and 4.6 nM.
Consider `Cc1cccc(C)c1C(=O)N[C@@H](Cc1ccc(NC(=O)c2c(Cl)cccc2Cl)cc1)C(=O)O`, for which the values for the IC50 in test [3] and in test [2] were 81 nM and 1.2 nM, respectively.
As for `O=C(N[C@@H](Cc1ccc(NC(=O)c2ccnc3ccccc23)cc1)C(=O)O)c1ccccc1`, the inhibition in test [1] was determined as 19%.
With `CCC(C(=O)N[C@@H](Cc1ccc(NC(=O)c2ccnc3ccccc23)cc1)C(=O)O)c1ccccc1` (some centres undefined), in test [1], the inhibition stood at 49%. In test [2], this compound gave an IC50 of 5.8 nM.

The term inhibition denotes how much of the control response was suppressed. Read a high inhibition as a strong effect. Broadly, the IC50 is the concentration needed to halve the response being measured. Higher therefore signals weaker potency.
